Measurements from patent US11713309B2, “Solid forms of Cerdulatinib” (Alexion Pharmaceuticals, Inc., priority 2018, dated 2023).
Where a name gives a salt, the structure may show the parent alone. Read-outs that look alike come from different tables or passages of the source.

Tests used:
Assay type in all cases: physicochemical
[1] = Kinetic solubility in water; details: 37° C., listed as HC1 salt Form I; for pH of supernatant: water (native pH 7.6); for Kinetic solubility: water
Description: (§1) Kinetic solubility testing was conducted as follows: About 40-55 mg material was weighed into a 5-mL EP pipe. 4 mL of water/bio-relevant media (SGF, FaSSIF, or FeSSIF) was added into the corresponding sample pipe (drug loading: ˜10 mg/mL calculated as freebase). The pipes were capped tightly and the material was verified to be in contact with the media. The sample vials were placed on a roller and start rolling at 37° C. (rate: 25 r/min). Samples were taken at 1, 2, 4, 24 h. For each time point, 1.0 mL of suspension was transferred into a 2-mL centrifuge tube and the samples were centrifuged. The supernatant was filtered via 0.45 μm PTFE membrane and solubility and pH were measured. An XRPD test on residual solids was conducted.

[2] = Overall solid form comparison (summary statements)
Source text: The hydration behavior of Compound I HCl Form I is reversible, such that rehydration of Compound I HCl Form I returns the single, crystalline form, allowing Compound I HCl Form I be stored at ambient conditions without desiccant.

[3] = Solution stability in buffer solutions; details: buffer solutions pH about 1.2 to about 10.0, about 60° C., 2 days
Description: The stability of Compound I HCl Form I in buffer solutions over a pH range of about 1.2 to about 10.0 was also evaluated. These solutions were stored at about 60° C., and assayed for pH and % remaining at 2 days.

[4] = Thermodynamic aqueous solubility by HPLC; details: HPLC grade water, 25° C., 24 hours; second scale up material; listed as Comp. I HCl (formed using aqueous HCl) Form I
Description: The suspension was equilibrated at 25° C. for 24 hours. The suspension was then passed through a filter into an HPLC vial. The filtrate was then diluted by an appropriate factor. Quantification was executed by HPLC with reference to a standard solution of approximately 1 mg·mL^−1 in acetonitrile:water (1:1). Different volumes of the standard, diluted and undiluted sample solutions were injected. […] HPLC method parameters are described in Table 1 and Table 2.
Analysis was performed on an Agilent 1100 series liquid chromatography, equipped with a UV detector (DAD or VWD) @ 254 nm and using Chemstation Rev.B.01.03 software for data processing.
(§2) The solubility of the salts/co-crystals of Compound I prepared from the second scale up process was analyzed. The materials recovered after the solubility analysis were evaluated by XRPD to observe any form changes.

[5] = Solid-state storage stability at controlled temperature/RH; details: for Form change / HPLC purity on storage: 2 weeks, initial HPLC purity 99.3%
Description: Storage at 25° C./60% RH and at 40° C./75% RH: Compound I HCl Form I was stored at 25° C./60% RH and at 40° C./75% RH. Initial HPLC purity was 99.3%.

Low humidity testing = test: Low humidity testing
Description: Low Humidity testing: Compound I HCl salt Form I was placed under N2 and checked by in situ XRPD at 20 min and 60 minutes. […] HCl salt Form I was placed under N2 bleeding for ˜60 min and TGA and DSC were measured. […] (peak temperature).

[6] = Polymorphic stability at elevated temperatures
[7] = XRPD form evaluation of materials recovered after solubility analysis; details: aqueous solubility analysis, second scale up material
Description: as §2

[8] = Approximate kinetic solubility in organic solvents; details: kinetic from dmso stock
Source text: A summary of the approximate kinetic solubility of Compound I HCl Form I in organic solvents, simulated biological fluids, and common pharmaceutical co-solvents is provided in Tables 8-10, respectively.

[9] = Further solubility testing of Compound I HCl Form I in solvents
[10] = Kinetic solubility in FeSSIF
Description: as §1

[11] = Kinetic solubility in FaSSIF; details: listed as HC1 salt Form I
Description: as §1

[12] = DMSO, organic solvent or mixture

CCS(=O)(=O)N1CCN(c2ccc(Nc3ncc(C(N)=O)c(NC4CC4)n3)cc2)CC1 [Compound I HCl Form I, 4-(cyclopropylamino)-2-(4-(4-(ethylsulfonyl)piperazin-1-yl)phenylamino)pyrimidine-5-carboxamide]
pH of supernatant ([1]; 1 h): 3.1
pH of supernatant ([1]; 2 h): 2.9
pH of supernatant ([1]; 4 h): 3.0
pH of supernatant ([1]; 24 h): 2.9
Kinetic solubility ([1]; 1 h): 220 µg/mL
Kinetic solubility ([1]; 2 h): 250 µg/mL
Kinetic solubility ([1]; 4 h): 180 µg/mL
Kinetic solubility ([1]; 24 h): 180 µg/mL
Stability relative to the other solid forms / salts of Compound I [2]: most physico-chemically stable solid form
Stability relative to the other solid forms / salts of Compound I ([2]; listed as Compound I mono-HCl Form I): superior thermodynamically stability
Stability of the solid form ([2]; room temperature, ambient conditions): stable
pH at which most stable in solution (% remaining) [3]: about 4.5
solubility [4]: 350 µg/mL
Form change / HPLC purity on storage ([5]; 25° C./60% RH): No form change or decrease in purity by HPLC
Form change / HPLC purity on storage ([5]; 40° C./75% RH): No form change or decrease in purity by HPLC
Form change on storage (XRPD, TGA and DSC) ([5]; powder, about 6 months, about 40° C./75% RH, open dish): did not exhibit any form change
Form under N2 by in situ XRPD (Low humidity testing; N2 bleeding for 20 min, 10.2% RH): A new form was observed
Form after re-exposure to ambient conditions (Low humidity testing; after N2 bleeding): converted back to HCl salt Form I quickly
Polymorphism after re-hydrating post-TGA material (DSC) ([6]; 3 days at about 60% RH): no gross effect upon the polymorphism, but amorphous content did appear
Crystalline form after dry-heating (XRPD, DSC, proton NMR) ([6]; about 50° C., about 72 hours): did not change the crystalline form
Crystalline form after heating inside TGA ([6]; up to about 120° C. until approximately 3% weight loss): slight loss of crystallinity, but without a new form appearing
Form change on solubility analysis (XRPD post vs pre) [7]: no form change
solubility kinetic ([8]; Acetone, MeCN, IPA, EtOAc, THF, Dioxane, DCM, organic solvent or mixture): < 100 µg/mL
solubility kinetic ([8]; DMF, PEG300, organic solvent or mixture): 1000 to 10000 µg/mL
solubility kinetic [8, 12]: 10000 to 33300 µg/mL
solubility kinetic ([8]; Methanol, Ethanol, PG, Safflower Seed Oil, Tween 80, organic solvent or mixture): 100 to 1000 µg/mL
solubility ([9]; 1,4-dioxane, organic solvent or mixture): < 2100 µg/mL
solubility ([9]; 2-MeTHF, organic solvent or mixture): < 2100 µg/mL
solubility ([9]; ACN, organic solvent or mixture): < 2200 µg/mL
solubility ([9]; ACN/H2O, 4:1 (v/v), organic solvent or mixture): 2900 to 3800 µg/mL
solubility ([9]; Acetone/H2O, 4:1 (v/v), organic solvent or mixture): < 1900 µg/mL
solubility ([9]; CHCl3, organic solvent or mixture): < 2300 µg/mL
solubility ([9]; CPME, organic solvent or mixture): < 2000 µg/mL
solubility ([9]; DCM, organic solvent or mixture): < 2100 µg/mL
solubility [9, 12]: > 36000 µg/mL
solubility ([9]; EtOAc, organic solvent or mixture): < 2000 µg/mL
solubility ([9]; EtOH, organic solvent or mixture): < 2200 µg/mL
solubility ([9]; EtOH/H2O, 4:1 (v/v), organic solvent or mixture): < 2000 µg/mL
solubility ([9]; IPA, organic solvent or mixture): < 1900 µg/mL
solubility ([9]; IPAc, organic solvent or mixture): < 2300 µg/mL
solubility ([9]; MIBK, organic solvent or mixture): < 2300 µg/mL
solubility ([9]; MTBE, organic solvent or mixture): < 2000 µg/mL
solubility ([9]; MeOH, organic solvent or mixture): 1900 to 6300 µg/mL
solubility ([9]; MeOH/DCM, 1:1 (v/v), organic solvent or mixture): 6800 to 12500 µg/mL
solubility ([9]; MeOH/H2O, 4:1 (v/v), organic solvent or mixture): < 2000 µg/mL
solubility ([9]; NMP, organic solvent or mixture): 4000 to 6700 µg/mL
solubility ([9]; THF, organic solvent or mixture): < 1900 µg/mL
solubility ([9]; THF/H2O, 4:1 (v/v), organic solvent or mixture): 2000 to 2500 µg/mL
solubility ([9]; acetone, organic solvent or mixture): < 2200 µg/mL
solubility ([9]; anisole, organic solvent or mixture): < 2300 µg/mL
solubility ([9]; n-heptane, organic solvent or mixture): < 1900 µg/mL
solubility ([9]; toluene, organic solvent or mixture): < 2100 µg/mL
Kinetic solubility in FeSSIF (qualitative) ([10]; 37° C.): favorable kinetic solubility
Solubility (mg/mL) 1 h ([10]; 37° C., 1 h, drug loading ~10 mg/mL as freebase, listed as HC1 salt Form I): 0.049 mg/mL
Solubility (mg/mL) 2 h ([10]; 37° C., 2 h, listed as HC1 salt Form I): 0.031 mg/mL
Solubility (mg/mL) 4 h ([10]; 37° C., 4 h, listed as HC1 salt Form I): 0.010 mg/mL
Solubility (mg/mL) 24 h ([10]; 37° C., 24 h, listed as HC1 salt Form I): 0.0072 mg/mL
Final Form 2 h, 4 h, 24 h ([10]; XRPD of residual solids, 2 h, 4 h, 24 h): Freebase Form II
pH 1 h ([10]; supernatant, 1 h, listed as HC1 salt Form I): 4.9
pH 2 h ([10]; supernatant, 2 h, listed as HC1 salt Form I): 4.7
pH 4 h ([10]; supernatant, 4 h, listed as HC1 salt Form I): 4.7
pH 24 h ([10]; supernatant, 24 h, listed as HC1 salt Form I): 4.5
Solubility (mg/mL) 1 h ([11]; FaSSIF, 37° C., 1 h, drug loading ~10 mg/mL as freebase): 0.012 mg/mL
Solubility (mg/mL) 2 h ([11]; FaSSIF, 37° C., 2 h): 0.013 mg/mL
Solubility (mg/mL) 4 h ([11]; FaSSIF, 37° C., 4 h): 0.013 mg/mL
Solubility (mg/mL) 24 h ([11]; FaSSIF, 37° C., 24 h): 0.011 mg/mL
pH 1 h ([11]; supernatant, FaSSIF (native pH 6.5), 1 h): 5.4
pH 2 h ([11]; supernatant, FaSSIF (native pH 6.5), 2 h): 5.1
pH 4 h ([11]; supernatant, FaSSIF (native pH 6.5), 4 h): 5.2
pH 24 h ([11]; supernatant, FaSSIF (native pH 6.5), 24 h): 4.6
